Test results reported in patent publication US8273771B2, “Ischemic disorder or disease inhibitors” (Pronas Pharma AB, priority 2007, dated 2012).
Read-outs that look alike come from different tables or passages of the source.

Key:
[1] = system: MCA from rats with induced SAH; assay: Myograph contractile response to Ang II (via AT1) in cerebral arteries of treated SAH rats; assay type: in vivo, rat; conditions: in presence of PD123319, compared to SAH rats, no significant difference to sham
Experimental: The brains were quickly removed and chilled in ice-cold bicarbonate buffer solution (see composition below). Under a dissection microscope, the middle cerebral artery (MCA), the basilar artery (BA) and circle of Willis were carefully dissected free from the brain and cleared of connective tissue. The MCA and BA were immediately mounted in myographs for in vitro pharmacology or snap frozen at -80° C. and examined by real-time PCR. […] Measurements were recorded on a computer by use of a PowerLab unit (ADInstruments). […] The contractile capacity was determined by exposing the vessels to an isotonic solution containing 63.5 mM of K+, obtained by partial change of NaCl for KCl in the above buffer. […] Data are expressed as mean±standard error of the mean (s.e.m.), and n refers to the number of rats. […] In vitro Pharmacology Contractile responses in each segment are expressed as percentage of the 63.5 mM K+ induced contraction. […]

AT1 receptor mRNA = assay: Real-time PCR of receptor mRNA in cerebral arteries after SAH; assay type: in vivo, rat; conditions: MCA, BA and circle of Willis grouped; SAH rats
AT1 receptor protein = assay: Immunohistochemistry of cerebral arteries after SAH; assay type: in vivo, rat; conditions: smooth muscle cell layer; sham 100±7%, SAH 168±7%
Excerpt: (§1) The MCA and BA were dissected out and then placed onto Tissue TEK (Gibco) and frozen. They were then sectioned into 10 μm thick slices. The primary antibodies used were rabbit antihuman ETB (IBL, 16207), diluted 1:400, goat anti mouse 5-HT1B (Santa Cruz Biotechnologies, sc-1461), diluted 1:100, AT1 (Santa Cruz Biotechnologies), diluted 1:100, mouse anti rat CD31 (Serotec, MCA1746), diluted 1:200, and mouse anti rat smooth muscle actin (Serotec, MCA1905T) diluted 1:100. All dilutions were done in PBS with 10% fetal calf serum. The secondary antibodies used were donkeyantimouse Cy™5 conjugated (JacksonImmunoResearch, 715-175-150) 1:100, donkeyantirabbit Cy™3 conjugated (JacksonImmunoResearch, 711-165-152) 1:100 in PBS with 10% fetal calf serum. The antibodies were detected at the appropriate wavelength in a confocal microscopy (Zeiss, USA). As control, only secondary antibodies were used.
(§2) The images were analysed using the ImageJsoftware (http://rsb.info.nih.gov/ij/). The fluorescence in 4-6 different areas in each artery was measured and a mean value was calculated. These values are presented as percentage fluorescence in the SAH groups compared to the sham group, where the sham group is set to 100%.

ETB receptor protein = assay: as above; assay type: in vivo, rat; conditions: smooth muscle cell layer; sham 100±3%, SAH 167±4%
Excerpt: as §1, §2

pERK1/2 = assay: as above; assay type: in vivo, rat; conditions: smooth muscle cells; sham 100±3%, SAH 188±7%
[2] = system: rats after MCA occlusion and reperfusion; conditions: for brain damage (% of total volume): control 24.8±2%; for oedema (% of total volume): control 1.01±0.03
Experimental: This group of animals went through the same procedure as the above-mentioned SAH animals. Two hours after the MCA occlusion, the rat was re-anesthetized to allow for withdrawal of the filament and subsequent reperfusion of the brain. In conjunction with the reperfusion (0 h), at 6 h or at 12 h afterwards, and at 24 h after the start of the reperfusion in the same animal, the rats were injected intraperitoneal with 30 mg/kg U0126 dissolved in dimethylsulfoxide (DMSO). […] Control rats were injected with an equal volume of DMSO at the same time points.

Compound	Ang II induced contractile response [1]	enhanced expression of AT1 receptor mRNA (AT1 receptor mRNA)	AT1 receptor protein level, fluorescence compared to sham (AT1 receptor protein) [%]	ETB receptor protein level, fluorescence compared to sham (ETB receptor protein) [%]	pERK1/2 level, fluorescence compared to sham (pERK1/2) [%]	brain damage (% of total volume) ([2]; 30 mg/kg i.p. starting after 12 h) [%]	brain damage (% of total volume) ([2]; 30 mg/kg i.p. starting at 0 h after MCAO reperfusion) [%]	brain damage (% of total volume) ([2]; 30 mg/kg i.p. starting at 6 h) [%]	lowest dose that elicited a clear significant effect on infarct volume ([2]; intraperitoneal, doses 10 to 100 mg/kg evaluated, preliminary experiments) [mg/kg]	oedema (% of total volume) ([2]; treatment starting at 0 h)	oedema (% of total volume) ([2]; treatment starting at 6 h)	oedema (% of total volume) ([2]; treatment starting at 12 h)
Oc1cc(-c2nc(-c3ccccc3)[nH]c2-c2ccncc2)ccc1Cl [SB386023-b]	significantly attenuated	inhibited	105±10	109±5	102±5							
N#CC(=C(/N)Sc1ccccc1N)/C(C#N)=C(\N)Sc1ccccc1N [U0126]						20.3±1	11.8±2	14.6±3	30	1.05±0.02 % of total volume	0.98±0.02 % of total volume	1.02±0.04 % of total volume
